Measured values taken from patent publication US9884048B2, “ERK inhibitors” (Merck Sharp & Dohme Corp., priority 2014, dated 2018).

Target: phosphorylated active hERK2 enzyme (Homo sapiens (Human), UniProt P28482)
Conditions: read-out: ERK2 IC50; IMAP-FP assay; 0.5 nM hERK2, 30 μM ATP; 10 point titration, 3 μM starting concentration

Chain of phosphorylated active hERK2 enzyme (P28482 whole entry): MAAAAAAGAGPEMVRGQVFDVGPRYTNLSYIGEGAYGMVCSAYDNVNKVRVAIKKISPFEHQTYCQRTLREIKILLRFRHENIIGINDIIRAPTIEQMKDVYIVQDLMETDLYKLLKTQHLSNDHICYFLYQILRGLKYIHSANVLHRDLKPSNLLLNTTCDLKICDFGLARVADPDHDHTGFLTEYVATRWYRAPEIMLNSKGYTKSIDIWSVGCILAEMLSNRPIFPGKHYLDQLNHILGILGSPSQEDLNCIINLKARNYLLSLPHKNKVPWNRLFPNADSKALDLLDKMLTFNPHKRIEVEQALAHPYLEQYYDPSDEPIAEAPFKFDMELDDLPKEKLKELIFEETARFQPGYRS

SMILES | IC50 [µM]
Cc1cc(-n2ncc3cc(NC(=O)N[C@@H]4[C@@H](C)N(C)C[C@H]4c4ccccc4C)ncc32)ccn1 [Example 104, 1-[(2R,3S,4R)-1,2-dimethyl-4-(2-methyl-phenyl)pyrrolidin-3-yl]-3-[1-(2-methylpyridin-4-yl)-1H-pyrazolo[3,4-c]pyridin-5-yl]urea] | 0.0355
Cc1cc(-n2ncc3cc(NC(=O)NC(C)c4ccc(OC(F)(F)F)cc4)ncc32)ccn1 (centres unmarked) [Example 47] | 0.0403
Cc1cc(-n2ncc3cc(NC(=O)NC4CCC(c5ccccc5)C4)ncc32)ccn1 (centres unmarked) [Example 178, 1-[1-(2-methylpyridin-4-yl)-1H-pyrazolo[3,4-c]pyridin-5-yl]-3-(3-phenylcyclopentyl)urea] | 0.0371
Cc1cc(-n2ncc3cc(NC(=O)N[C@H]4CN(C)C[C@@H]4CCCc4ccccc4)ncc32)ccn1 [Example 149, 1-[(3R,4S)-1-methyl-4-(3-phenylpropyl)pyrrolidin-3-yl]-3-[1-(2-methylpyridin-4-yl)-1H-pyrazolo[3,4-c]pyridin-5-yl]urea] | 0.00118
Cc1cc(-n2ncc3cc(NC(=O)NCC(c4ccccc4)N4CCC(F)(F)CC4)ncc32)ccn1 (centres unmarked) [Example 55, 1-[2-(4,4-difluoropiperidin-1-yl)-2-phenylethyl]-3-[1-(2-methylpyridin-4-yl)-1H-pyrazolo[3,4-c]pyridin-5-yl]urea] | 0.0851
Cc1cc(-n2ncc3cc(NC(=O)NCc4cnn(-c5ccc(F)cc5)c4)ncc32)ccn1 [Example 60, 1-{[1-(4-fluorophenyl)-1H-pyrazol-4-yl]methyl}-3-[1-(2-methylpyridin-4-yl)-1H-pyrazolo[3,4-c]pyridin-5-yl]urea] | 1.63
Cc1cc(-n2ncc3cc(NC(=O)NC4(C#N)CC4)ncc32)ccn1 [Example 121, 1-(1-cyanocyclopropyl)-3-[1-(2-methylpyridin-4-yl)-1H-pyrazolo[3,4-c]pyridin-5-yl]urea] | 1.81
Cc1cc(-n2ncc3cc(NC(=O)NC(C)c4ccc(-n5cncn5)cc4)ncc32)ccn1 (centres unmarked) [Example 45, 1-[1-(2-methylpyridin-4-yl)-1H-pyrazolo[3,4-c]pyridin-5-yl]-3-{1-[4-(1H-1,2,4-triazol-1-yl)phenyl]ethyl}urea] | 0.166
Cc1cc(-n2ncc3cc(NC(=O)NCc4cccc(-c5ncco5)c4)ncc32)ccn1 [Example 94, 1-[1-(2-methylpyridin-4-yl)-1H-pyrazolo[3,4-c]pyridin-5-yl]-3-[3-(1,3-oxazol-2-yl)benzyl]urea] | 0.0133
Cc1cc(-n2ncc3cc(NC(=O)NCc4cc(C)nn4C)ncc32)ccn1 [Example 119, 1-[(1,3-dimethyl-1H-pyrazol-5-yl)methyl]-3-[1-(2-methylpyridin-4-yl)-1H-pyrazolo[3,4-c]pyridin-5-yl)urea] | 0.0966
Cn1cc(-n2ncc3cc(NC(=O)NCc4ccc(F)cc4)ncc32)cn1 [Example 4, 1-(4-fluorobenzyl)-3-[1-(1-methyl-1H-pyrazol-4-yl)-1H-pyrazolo[3,4-c]pyridin-5-yl)urea] | 0.0413
Cc1cc(-n2ncc3cc(NC(=O)N[C@H]4CN(C)C[C@@H]4c4ccc(-c5ccccc5)s4)ncc32)ccn1 [Example 155, 1-[(3R,4S)-1-methyl-4-(5-phenylthiophen-2-yl)pyrrolidin-3-yl]-3-[1-(2-methylpyridin-4-yl)-1H-pyrazolo[3,4-c]pyridin-5-yl]urea] | 0.591
Cc1cc(-n2ncc3cc(NC(=O)N[C@@H]4CN(C)[C@H](C)[C@H]4c4ccccc4C)ncc32)ccn1 [Example 106, 1-[(3S,4S,5R)-1,5-dimethyl-4-(2-methylphenyl)-pyrrolidin-3-yl]-3-[1-(2-methylpyridin-4-yl)-1H-pyrazolo[3,4-c]pyridin-5-yl)urea] | 0.00152
Cc1cc(-n2ncc3cc(NC(=O)NC4CCCN(c5ccccc5)C4)ncc32)ccn1 (centres unmarked) [Example 82, 1H-pyrazolo[3,4-c]pyridin-1-[1-(2-methylpyridin-4-yl)-5-yl]-3-(1-phenylpiperidin-3-yl)urea] | 0.00761
Cc1cc(-n2ncc3cc(NC(=O)N[C@H]4CNC[C@@H]4Oc4ccccc4)ncc32)ccn1 [Example 157, 1-[1-(2-methylpyridin-4-yl)-1H-pyrazolo[3,4-c]pyridin-5-yl]-3-[(3S,4S)-4-phenoxypyrrolidin-3-yl)urea] | 0.0353
Cc1cc(-n2ncc3cc(NC(=O)NCC(C)O)ncc32)ccn1 (centres unmarked) [Example 120, 1-(2-hydroxypropyl)-3-[1-(2-methylpyridin-4-yl)-1H-pyrazolo[3,4-c]pyridin-5-yl)urea] | 0.107
Cc1cc(-n2ncc3cc(NC(=O)N[C@@H]4C[C@H](C)N(C)C4)ncc32)ccn1 [Example 26, 1-[(3R,5S)-1,5-dimethylpyrrolidin-3-yl]-3-[1-(2-methylpyridin-4-yl)-1H-pyrazolo[3,4-c]pyridin-5-yl]urea] | 0.275
Cc1cc(-n2ncc3cc(NC(=O)NCc4c(-c5ccccc5)noc4C)ncc32)ccn1 [Example 114, 1-[(5-methyl-3-phenyl-isoxazol-4-yl)methyl]-3-[1-(2-methylpyridin-4-yl)-1H-pyrazolo[3,4-c]pyridin-5-yl)urea] | 0.00214

Second part, the compound after the results:

IC50 [µM] | SMILES
1.24 | C[C@@H](NC(=O)Nc1cc2cnn(-c3ccc(F)cc3)c2c(CNCCN(C)C)n1)c1ccccc1 [Example 320, 1-[7-({[2-(dimethylamino)ethyl]amino}methyl)-1-(4-fluorophenyl)-1H-pyrazolo[3,4-c]pyridin-5-yl]-3-[(1R)-1-phenylethyl]urea]
0.0477 | CO[C@@H]1CN(C)C[C@H]1NC(=O)Nc1cc2cnn(-c3ccnc(C)c3)c2cn1 [Example 194, 1-[(3R,4R)-4-methoxy-1-methylpyrrolidin-3-yl]-3-[1-(2-methylpyridin-4-yl)-1H-pyrazolo[3,4-c]pyridin-5-yl]urea]
1.26 | C[C@@H](NC(=O)Nc1cc2cnn(C(C)(C)C)c2c(CO)n1)c1ccccc1 [Example 255, 1-[1-tert-butyl-7-(hydroxymethyl)-1H-pyrazolo[3,4-c]pyridin-5-yl]-3-[(1R)-1-phenylethyl]urea]
0.00278 | Cc1cc(-n2ncc3cc(NC(=O)NC4CCCN(Cc5c(F)cccc5F)C4)ncc32)ccn1 (centres unmarked) [Example 266, 1-[1-(2,6-difluorobenzyl)piperidin-3-yl]-3-[1-(2-methylpyridin-4-yl)-1H-pyrazolo[3,4-c]pyridin-5-yl]urea]
0.594 | CCN1C[C@H](NC(=O)Nc2cc3cnn(-c4ccnc(C)c4)c3cn2)[C@@H](Oc2cncc(F)c2)C1 [Example 277, 1-{(3S,4S)-1-ethyl-4-[(5-fluoropyridin-3-yl)oxy]pyrrolidin-3-yl}-3-[1-(2-methylpyridin-4-yl)-1H-pyrazolo[3,4-c]pyridin-5-yl]urea]
0.0234 | Cc1cc(-n2ncc3cc(NC(=O)N[C@H](C)c4ccccc4)nc(COCCO)c32)ccn1 [Example 253, 1-{7-[(2-hydroxyethoxy)methyl]-1-(2-methylpyridin-4-yl)-1H-pyrazolo[3,4-c]pyridin-5-yl}-3-[(1R)-1-phenylethyl]urea]
0.1 | CCn1ncc2cc(NC(=O)N[C@H](C)c3ccccc3)nc(OC)c21 [Example 256, 1-(1-ethyl-7-methoxy-1H-pyrazolo[3,4-c]pyridin-5-yl)-3-[(1R)-1-phenylethyl]urea]
0.00784 | Cc1cc(-n2ncc3cc(NC(=O)N[C@H](C)c4ccccn4)ncc32)ccn1 [Example 204, 1-[1-(2-methylpyridin-4-yl)-1H-pyrazolo[3,4-c]pyridin-5-yl]-3-[(1R)-1-pyridin-2-ylethyl]urea]
0.0449 | CCn1ncc2cc(NC(=O)N[C@@H](c3ccccc3)C(C)(C)O)nc(OC)c21 [Example 257, 1-(1-ethyl-7-methoxy-1H-pyrazolo[3,4-c]pyridin-5-yl)-3-[(1S)-2-hydroxy-2-methyl-1-phenylpropyl]urea]
0.0432 | Cc1cc(-n2ncc3cc(NC(=O)NCC4(F)CNC4)ncc32)ccn1 [Example 287, 1-[(3-fluoroazetidin-3-yl)methyl]-3-[1-(2-methylpyridin-4-yl)-1H-pyrazolo[3,4-c]pyridin-5-yl]urea]
0.327 | Cc1cc(-n2ncc3cc(NC(=O)N[C@H]4CNC[C@@H]4Oc4cncc(F)c4)ncc32)ccn1 [Example 275, 1-{(3S,4S)-4-[(5-fluoropyridin-3-yl)oxy]pyrrolidin-3-yl}-3-[1-(2-methylpyridin-4-yl)-1H-pyrazolo[3,4-c]pyridin-5-yl]urea]
1.19 | Cc1cc(-n2ncc3cc(NC(=O)N[C@@H](C)c4ccccn4)ncc32)ccn1 [Example 203, 1-[1-(2-methylpyridin-4-yl)-1H-pyrazolo[3,4-c]pyridin-5-yl]-3-[(1S)-1-pyridin-2-ylethyl]urea]
0.236 | C[C@@H](NC(=O)Nc1cc2cnn(C3CCOCC3)c2c(CO)n1)c1ccccc1 [Example 316, 1-[7-(hydroxymethyl)-1-(tetra-hydro-2H-pyran-4-yl)-1H-pyra-- zolo[3,4-c]pyridin-5-yl]-3-[(1R)-1-phenylethyl]urea]
0.0693 | Cn1ncc2cc(NC(=O)N[C@@H](c3ccccc3)C(C)(C)O)nc(CO)c21 [Example 226, 1-[7-(hydroxymethyl)-1-methyl-1H-pyrazolo[3,4-c]pyridin-5-yl]-3-[(1S)-2-hydroxy-2-methyl-1-phenylpropyl]urea]
0.0036 | Cc1cc(-n2ncc3cc(NC(=O)N[C@H]4CN(C5CCC5)C[C@@H]4c4ccccc4)ncc32)ccn1 [Example 195, 1-[(3R,4S)-1-cyclobutyl-4-phenylpyrrolidin-3-yl]-3-[1-(2-methylpyridin-4-yl)-1H-pyrazolo[3,4-c]pyridin-5-yl]urea]
0.143 | C[C@@H](NC(=O)Nc1cc2cnn(CC3COC3)c2c(CO)n1)c1ccccc1 [Example 315, 1-[7-(hydroxymethyl)-1-(oxetan-3-ylmethyl)-1H-pyrazolo[3,4-c]pyridin-5-yl]-3-[(1R)-1-phenylethyl]urea]
0.0176 | COC(=O)NCc1nc(NC(=O)N[C@H](C)c2ccccc2)cc2cnn(-c3ccc(F)cc3)c12 [Example 326, Methyl {[1-(4-fluorophenyl)-5-({[(1R)-1-phenylethyl]carbamoyl}amino)-1H-pyrazolo[3,4-c]pyridin-7-yl]methyl}carbamate]
